Assay results taken from PubChem BioAssay AID2060889 (Molecular Pharmacology Branch, DTP, NCI, 2025).

Test system: LG0567-F671-PDC complex spheroids viability
Assay: Anticancer human tumor LG0567-F671-PDC patient-derived lung adenocarcinoma cell line growth inhibition [RAS]
Details: for IC50: curve of first compound; for viability, T/C: stronger effect = lower value
Method in brief: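 Multi-cell-type spheroids: tumor cells plus HUVEC endothelial cells and mesenchymal stem cells. RAS-pathway inhibitors were combined with targeted agents, each dosed in half-log steps down from clinical Cmax, or from 10 microM when Cmax was unknown.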

[1] = second compound 0.000949 µM, first compound 0.0316 µM
[2] = second compound 0.000949 µM, first compound 0.1 µM
[3] = second compound 0.000949 µM, first compound 0.316 µM
[4] = second compound 0.000949 µM, first compound 1 µM
[5] = second compound 0.000949 µM, first compound 3.16 µM
[6] = second compound 0.000949 µM, first compound 10 µM
[7] = second compound 0.003 µM, first compound 0.0316 µM
[8] = second compound 0.003 µM, first compound 0.1 µM
[9] = second compound 0.003 µM, first compound 0.316 µM
[10] = second compound 0.003 µM, first compound 1 µM
[11] = second compound 0.003 µM, first compound 3.16 µM
[12] = second compound 0.003 µM, first compound 10 µM
[13] = second compound 0.00949 µM, first compound 0.0316 µM
[14] = second compound 0.00949 µM, first compound 0.1 µM
[15] = second compound 0.00949 µM, first compound 0.316 µM
[16] = second compound 0.00949 µM, first compound 1 µM
[17] = second compound 0.00949 µM, first compound 3.16 µM
[18] = second compound 0.00949 µM, first compound 10 µM
[19] = second compound 0.03 µM, first compound 0.0316 µM
[20] = second compound 0.03 µM, first compound 0.1 µM
[21] = second compound 0.03 µM, first compound 0.316 µM
[22] = second compound 0.03 µM, first compound 1 µM
[23] = second compound 0.03 µM, first compound 3.16 µM
[24] = second compound 0.03 µM, first compound 10 µM
[25] = second compound 0.0949 µM, first compound 0.0316 µM
[26] = second compound 0.0949 µM, first compound 0.1 µM
[27] = second compound 0.0949 µM, first compound 0.316 µM
[28] = second compound 0.0949 µM, first compound 1 µM
[29] = second compound 0.0949 µM, first compound 3.16 µM
[30] = second compound 0.0949 µM, first compound 10 µM
[31] = second compound 0.3 µM, first compound 0.0316 µM
[32] = second compound 0.3 µM, first compound 0.1 µM
[33] = second compound 0.3 µM, first compound 0.316 µM
[34] = second compound 0.3 µM, first compound 1 µM
[35] = second compound 0.3 µM, first compound 3.16 µM
[36] = second compound 0.3 µM, first compound 10 µM
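Note: spheroids exposed to compound for seven days before readout.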
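Throughout, for IC50: luminescence signal used as a proxy for viable cells.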

In the case of `CCC(CC)c1cc(NC2CCC(N)C2)n2nccc2n1` (centres undefined) + CCn1c(-c2cccnc2C(C)OC)c2c3cc(ccc31)N1CCOC(CC(NC(=O)C(C(C)C)N(C)C(=O)C3(F)CCN(C(=O)C#CC(C)(C)N(C)C)CC3)C(=O)N3CCCC(N3)C(=O)OCC(C)(C)C2)C1, the IC50 (second compound 0.000949 µM) is reported as < 31.6 nM, the IC50 (second compound 0.003 µM) is reported as < 31.6 nM and the IC50 (second compound 0.00949 µM) is reported as < 31.6 nM. The IC50 (second compound 0.03 µM) was < 31.6 nM, the IC50 (second compound 0.0949 µM) was < 31.6 nM and the IC50 (second compound 0.3 µM) was < 31.6 nM. It also gave a viability, T/C [1] of 21.2%, a viability, T/C [2] of 16.6% and a viability, T/C [3] of 13.3%. It also gave a viability, T/C [4] of 13.9%, a viability, T/C [5] of 4.31% and a viability, T/C [6] of 0.82%. It also gave a viability, T/C [7] of 14.1%, a viability, T/C [8] of 16.1% and a viability, T/C [9] of 14.6%. For the same compound, the viability, T/C [10] was 13.5%, the viability, T/C [11] was 4.44% and the viability, T/C [12] was 0.75%. The viability, T/C [13] was 13.7%, the viability, T/C [14] was 15% and the viability, T/C [15] was 13.3%. The viability, T/C [16] was 14.2%, the viability, T/C [17] was 3.48% and the viability, T/C [18] was 0.89%. For the same compound, the viability, T/C [19] was 13.2%, the viability, T/C [20] was 13.2% and the viability, T/C [21] was 11.8%. The viability, T/C [22] was 12.3%, the viability, T/C [23] was 3.67% and the viability, T/C [24] was 0.88%. The viability, T/C [25] was 10.6%, the viability, T/C [26] was 12.2% and the viability, T/C [27] was 10.4%. For the same compound, the viability, T/C [28] was 12%, the viability, T/C [29] was 4.19% and the viability, T/C [30] was 1%. It also gave a viability, T/C [31] of 8.88%, a viability, T/C [32] of 7.92% and a viability, T/C [33] of 8.86%. It also gave a viability, T/C [34] of 9.25%, a viability, T/C [35] of 3.79% and a viability, T/C [36] of 0.7%.

With `Cc1nc(N2CCC3(CC2)COC(C)C3N)c(CO)nc1Sc1ccnc(N)c1Cl` (centres undefined) + CCn1c(-c2cccnc2C(C)OC)c2c3cc(ccc31)N1CCOC(CC(NC(=O)C(C(C)C)N(C)C(=O)C3(F)CCN(C(=O)C#CC(C)(C)N(C)C)CC3)C(=O)N3CCCC(N3)C(=O)OCC(C)(C)C2)C1 the IC50 (second compound 0.000949 µM) was < 31.6 nM, the IC50 (second compound 0.003 µM) was < 31.6 nM and the IC50 (second compound 0.00949 µM) was < 31.6 nM. For the same compound, the IC50 (second compound 0.03 µM) was < 31.6 nM, the IC50 (second compound 0.0949 µM) was < 31.6 nM and the IC50 (second compound 0.3 µM) was < 31.6 nM. For the same compound, the viability, T/C [1] was 10.8%, the viability, T/C [2] was 7.91% and the viability, T/C [3] was 6.47%. It also gave a viability, T/C [4] of 4.21%, a viability, T/C [5] of 2.97% and a viability, T/C [6] of 3.86%. It also gave a viability, T/C [7] of 12%, a viability, T/C [8] of 8.89% and a viability, T/C [9] of 6.21%. For the same compound, the viability, T/C [10] was 4.14%, the viability, T/C [11] was 3.41% and the viability, T/C [12] was 2.94%. The viability, T/C [13] was 10.7%, the viability, T/C [14] was 8.42% and the viability, T/C [15] was 5.46%. For the same compound, the viability, T/C [16] was 3.45%, the viability, T/C [17] was 2.86% and the viability, T/C [18] was 3.85%. The viability, T/C [19] was 10.3%, the viability, T/C [20] was 6.81% and the viability, T/C [21] was 6.16%. For the same compound, the viability, T/C [22] was 3.36%, the viability, T/C [23] was 2.76% and the viability, T/C [24] was 2.27%. It also gave a viability, T/C [25] of 6.53%, a viability, T/C [26] of 6.31% and a viability, T/C [27] of 5%. The viability, T/C [28] was 3.1%, the viability, T/C [29] was 2.61% and the viability, T/C [30] was 3.31%. The viability, T/C [31] was 6.4%, the viability, T/C [32] was 4.69% and the viability, T/C [33] was 3.02%. The viability, T/C [34] was 3.78%, the viability, T/C [35] was 2.19% and the viability, T/C [36] was 3.11%.
